From US9949983B2, “Fused benzazepines for treatment of stuttering” (PSYADON PHARMACEUTICALS, INC., priority 2013, dated 2018)
Read-outs that look alike come from different tables or passages of the source.

How the values were obtained:
[1] = cited from earlier work
[2] = tested on: stuttering; conditions: cited from earlier work
[3] = target: D1 receptors (Homo sapiens, UniProt P21728); assay: In vitro cAMP second messenger studies (adenylate cyclase); format: biochemical
Description: (§1) Activation of D1 receptors by dopamine and similar agonists stimulates the production of cyclic AMP (cAMP) via activation of adenylate cyclase. […] To ensure that there was no species specificity to the receptor binding profile, ecopipam's potency and selectivity were evaluated using cloned human receptors. […] Positron emission tomography (PET) studies using radiolabeled ecopipam have been conducted in healthy volunteers (Karlsson et al., Psychopharmacol., 121:300-308, 1995).

[4] = target: T1, D1 receptor (Rattus norvegicus, UniProt P18901); conditions: rats, selective D1-agonist discriminative stimulus; cited from earlier work
T1 construct: In vivo studies on dopamine-agonist-induced behaviors; from tissue; host or cells: living rats (in vivo)
T1 sequence (P18901 whole entry): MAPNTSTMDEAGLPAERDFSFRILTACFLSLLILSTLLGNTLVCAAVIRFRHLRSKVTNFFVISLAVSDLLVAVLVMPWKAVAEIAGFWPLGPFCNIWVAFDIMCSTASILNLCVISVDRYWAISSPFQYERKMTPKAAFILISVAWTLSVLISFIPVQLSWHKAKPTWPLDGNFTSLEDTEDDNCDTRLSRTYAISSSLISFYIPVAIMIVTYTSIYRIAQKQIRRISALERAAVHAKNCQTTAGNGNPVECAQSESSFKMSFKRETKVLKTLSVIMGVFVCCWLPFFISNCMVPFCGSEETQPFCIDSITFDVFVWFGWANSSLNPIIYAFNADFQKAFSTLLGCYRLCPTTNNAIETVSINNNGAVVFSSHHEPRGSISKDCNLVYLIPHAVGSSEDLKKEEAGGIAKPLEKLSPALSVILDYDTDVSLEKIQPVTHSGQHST

[5] = tested on: D1/D5 receptors; conditions: rat brain homogenates, at low concentrations; cited from earlier work
[6] = Open-label clinical study of safety, tolerability and activity in adult patients with Tourette's Syndrome; format: in vivo, human; conditions: adult TS patients, 50 mg/day Weeks 1-2, 100 mg/day Weeks 3-8
Description: A clinical program was carried out to test the safety, tolerability, and activity of ecopipam in adult patients with Tourette's Syndrome. A multicenter, open-label, nonrandomized study in 25 to 30 subjects was conducted to assess the activity and safety of ecopipam in subjects with TS. […] Assessment was performed at each visit. A follow-up visit was conducted via telephone at Week 10 to record any adverse events. Ecopipam was administered daily before bedtime at 50 mg/day for Week 1 and Week 2 and at 100 mg/day for Weeks 3-8. This treatment regimen is within the scope of the present invention; the compositions and various formulations described herein can be administered as described in this Example. The demographics of the study population were as follows: eighty three percent of the subjects were male (15 out of 18); fifteen were Caucasian, two were African-American, and one was an Asian/Pacific Islander. All subjects reported at least one adverse event (AE). […] These side effects are similar to those seen in other studies with ecopipam and were not unexpected.

[7] = tested on: hD1/hD5 receptors; assay: Binding to cloned human receptors
Description: as §1

[8] = target: dopamine D1 receptors (Homo sapiens, UniProt P21728); conditions: radiolabeled ecopipam, healthy volunteers; cited from earlier work
Chain of dopamine D1 receptors (P21728 whole entry): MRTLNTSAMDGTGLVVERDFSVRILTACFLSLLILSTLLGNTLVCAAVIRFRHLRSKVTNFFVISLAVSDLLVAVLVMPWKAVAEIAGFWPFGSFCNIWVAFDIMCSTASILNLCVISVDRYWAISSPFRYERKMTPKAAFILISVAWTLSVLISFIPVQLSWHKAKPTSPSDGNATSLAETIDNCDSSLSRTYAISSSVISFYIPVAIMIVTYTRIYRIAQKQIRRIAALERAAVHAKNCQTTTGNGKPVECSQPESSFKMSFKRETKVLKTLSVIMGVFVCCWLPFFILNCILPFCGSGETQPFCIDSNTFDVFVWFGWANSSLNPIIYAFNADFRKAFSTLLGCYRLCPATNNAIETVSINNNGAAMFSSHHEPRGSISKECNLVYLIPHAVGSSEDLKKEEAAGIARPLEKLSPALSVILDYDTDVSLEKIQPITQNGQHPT

[9] = known D2 antagonists, literature reports

Chain of D1 receptors (P21728 whole entry): as above

COc1cc2c(cc1O)C1c3ccccc3CCCC1N(C)CC2 (stereo not drawn) [Q=CH2, n=2, trans, X=CH3O, Y=OH, 2-hydroxy-3-methoxy-7-methyl-5,6,7,7a,8,9,10,14b-octahydro-benzo[d]benzo[3,4]cyclo-hepta[1,2-b]azepine]
CAR (MED) ([1]; sc): 10 (sc)

CN1CCc2cc(Cl)c(O)cc2[C@@H]2c3ccccc3CC[C@H]21 [Q=CH2, n=1, 7b(S):7a(R)(+), X=Cl, Y=OH, 6,7,7a,8,9,13b-hexahydro-3-chloro-2-hydroxy-7-methyl-5H-benzo[d]naphtho[2,1-b]azepine]
CAR (MED) ([1]; po): >30 (po)

CN1CCc2cc(Cl)c(N)cc2C2c3ccccc3CCC21 (stereo not drawn) [Q=CH2, n=1, trans, X=Cl, Y=NH2, 6,7,7a,8,9,13b-hexahydro-2-amino-3-chloro-7-methyl-5H-benzo[d]naphtho[2,1-b]azepine]
CAR (MED) ([1]; po): 3 (po)

CN1CCc2cc(Cl)c(O)cc2[C@H]2c3ccccc3CC[C@@H]21 [Q=CH2, n=1, 7b(R): 7a(S)(−), X=Cl, Y=OH, 6,7,7a,8,9,13b-hexahydro-3-chloro-2-hydroxy-7-methyl-5H-benzo[d]naphtho[2,1-b]azepine]
CAR (MED) ([1]; po): 30 (po)

COc1cc2c(cc1O)C1c3ccccc3CCC1N(C)CC2 (stereo not drawn) [Q=CH2, n=1, trans, X=CH3O, Y=OH, 6,7,7a,8,9,13b-hexahydro-2-hydroxy-3-methoxy-7-methyl-5H-benzo[d]naphtho[2,1-b]azepine]
CAR (MED) ([1]; po): 30 | CAR (MED) ([1]; sc): 0.3-1

CN1CC2c3ccccc3Oc3ccc(Cl)cc3C2C1 (stereo not shown) [asenapine]
reported effect on stuttering [2, 9]: induce stuttering

COc1cc2c(cc1O)CCN(C)C1CCCc3ccccc3C21 (stereo not drawn) [Q=CH2, n=2, trans, X=HO, Y=CH3O, 3-hydroxy-2-methoxy-7-methyl-5,6,7,7a,8,9,10,14b-octahydro-benzo[d]benzo[3,4]cyclo-hepta[1,2-b]azepine]
CAR (MED) ([1]; sc): 10 (sc)

CN1CCc2cc(Cl)c(O)cc2C2c3ccccc3CCC21 (stereo not drawn) [Q=CH2, n=1, trans, X=Cl, Y=OH, 6,7,7a,8,9,13b-hexahydro-3-chloro-2-hydroxy-7-methyl-5H-benzo[d]naphtho[2,1-b]azepine]
CAR (MED) ([1]; po): 30 | CAR (MED) ([1]; sc): 0.3

Cc1cc2c(s1)Nc1ccccc1N=C2N1CCN(C)CC1 [olanzapine]
reported effect on stuttering [2, 9]: induce stuttering

COC(=O)C(c1ccccc1)C1CCCCN1 (stereo not shown) [methylphenidate]
reported effect on stuttering ([2]; D2-preferring dopamine agonist, literature report): relieve stuttering

Cc1nc2n(c(=O)c1CCN1CCC(c3noc4cc(F)ccc34)CC1)CCCC2 [risperidone]
reported effect on stuttering [2, 9]: induce stuttering

CN1CCc2cc(Cl)c(O)cc2[C@H]2c3ccccc3CC[C@@H]21 [ecopipam, (−)-trans-6,7,7a,8,9,13b-hexahydro-3-chloro-2-hydroxy-N-methyl-5H-benzo [d]-naphtho-[2,1-b]azepine]
action on cAMP second messenger [3]: antagonist | action on dopamine-agonist-induced behaviors [4]: selective D1 antagonist | affinity for D1/D5 receptors [5]: high affinity | patients reporting AEs rated as severe ([6]; 18 subjects): Four | subjects reporting at least one adverse event ([6]; 18 subjects): All subjects | AEs rated as severe (kinds) [6]: sedation, insomnia, decreased appetite, hypersensitivity, cold sweat, and feeling jittery | AEs rated mild to moderate reported in more than three subjects [6]: fatigue, insomnia, nausea, sedation, headache, restlessness, anxiety, muscle twitching, dysphoria, and sleeplessness | changes in lab tests [6]: none were of clinical significance | changes in vital signs [6]: no clinically significant changes in vital signs | serious adverse events [6]: no serious adverse events | affinity for hD1/hD5 receptors [7]: high affinity | binding in human brain (PET) [8]: specific binding in the human brain
